How the values were obtained:
[1] = test system: normal NK cells expanded with K562-aAPC; experiment: percent inhibition of viability; higher = more inhibition; conditions: 72 h, IL-2 2.5 ng/mL
Experimental: (§1)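 Drug sensitivity and resistance testing on K562-aAPC-expanded normal NK cells: 5 concentrations (10-fold steps over a 10,000-fold range), 72 h at 37 °C, viability by CellTiter-Glo normalised to DMSO and benzethonium chloride controls; DSS from the fitted curve.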

DERL-7 (IL-2 2.5 ng/mL) [2] = experiment: as above; conditions: 72 h
IMC-1 (IL-2 20 ng/mL) [3] = experiment: as above; conditions: 72 h
KAI3 (IL-2 2.5 ng/mL) [4] = experiment: as above; conditions: 72 h
KHYG-1 (IL-2 2.5 ng/mL) [5] = experiment: as above; conditions: 72 h
NK-92 (IL-2 2.5 ng/mL) [6] = experiment: as above; conditions: 72 h
NK-YS (IL-2 2.5 ng/mL) [7] = experiment: as above; conditions: 72 h
NKL (IL-2 2.5 ng/mL) [8] = experiment: as above; conditions: 72 h
SNK-6 (IL-2 2.5 ng/mL) [9] = experiment: as above; conditions: 72 h
YT (IL-2 2.5 ng/mL) [10] = experiment: as above; conditions: 72 h
[11] = test system: normal primary NK cells, pool 1 (3 donors) (IL-2 2.5 ng/mL); experiment: as above; conditions: 72 h
[12] = test system: normal primary NK cells, pool 1 (3 donors), resting (IL-2 0 ng/mL); experiment: as above; conditions: 72 h
[13] = test system: normal primary NK cells, pool 2 (3 donors) (IL-2 2.5 ng/mL); experiment: as above; conditions: 72 h
[14] = test system: normal primary NK cells, pool 3 (3 donors) (IL-2 2.5 ng/mL); experiment: as above; conditions: 72 h
[15] = test system: normal NK cells expanded with K562-aAPC; experiment: drug sensitivity score (DSS) (DSS units); higher = more sensitive; extreme values may be limits of the assay; conditions: 72 h; IL-2 2.5 ng/mL
Experimental: as §1

DERL-7 (IL-2 2.5 ng/mL) [16] = experiment: as above; conditions: 72 h
IMC-1 (IL-2 20 ng/mL) [17] = experiment: as above; conditions: 72 h
KAI3 (IL-2 2.5 ng/mL) [18] = experiment: as above; conditions: 72 h
KHYG-1 (IL-2 2.5 ng/mL) [19] = experiment: as above; conditions: 72 h
NK-92 (IL-2 2.5 ng/mL) [20] = experiment: as above; conditions: 72 h
NK-YS (IL-2 2.5 ng/mL) [21] = experiment: as above; conditions: 72 h
NKL (IL-2 2.5 ng/mL) [22] = experiment: as above; conditions: 72 h
SNK-6 (IL-2 2.5 ng/mL) [23] = experiment: as above; conditions: 72 h
YT (IL-2 2.5 ng/mL) [24] = experiment: as above; conditions: 72 h
[25] = test system: normal primary NK cells, pool 1 (3 donors) (IL-2 2.5 ng/mL); experiment: as above; conditions: 72 h
[26] = test system: normal primary NK cells, pool 1 (3 donors), resting (IL-2 0 ng/mL); experiment: as above; conditions: 72 h
[27] = test system: normal primary NK cells, pool 2 (3 donors) (IL-2 2.5 ng/mL); experiment: as above; conditions: 72 h
[28] = test system: normal primary NK cells, pool 3 (3 donors) (IL-2 2.5 ng/mL); experiment: as above; conditions: 72 h

CNC(=O)c1nn(C)c2c1C(C)(C)Cc1cnc(Nc3ccc(N4CCN(C)CC4)cc3)nc1-2 [Milciclib] (max concentration tested 10000 nM)
percent inhibition of viability [%]
Conditions	1 nM	10 nM	100 nM	1000 nM	10000 nM
DERL-7 (IL-2 2.5 ng/mL) [2]	3.27	-10.3	4.85	67.1	98.4
IMC-1 (IL-2 20 ng/mL) [3]	-3.68	-8.88	-4.95	-5.54	101
KAI3 (IL-2 2.5 ng/mL) [4]	2.07	-4.15	13.3	40	103
KHYG-1 (IL-2 2.5 ng/mL) [5]	0.72	0.82	16.2	88.3	108
NK-92 (IL-2 2.5 ng/mL) [6]	-4.06	-2.4	1.56	39	101
NK-YS (IL-2 2.5 ng/mL) [7]	-3.1	-3.45	7.23	40.2	103
NKL (IL-2 2.5 ng/mL) [8]	-13.6	-18.8	-12.2	37.9	106
SNK-6 (IL-2 2.5 ng/mL) [9]	2.94	-5.15	-12.8	17.8	93.1
YT (IL-2 2.5 ng/mL) [10]	1.63	0.13	-0.36	21	106
[1]	4.02	-0.67	11	58	101
[11]	-4.67	-0.64	-2.17	41.2	94.1
[12]	-2.66	2.94	14.9	61.7	88.7
[13]	-6.1	-7.12	7.61	55.9	96.4
[14]	-13.5	-12.3	-7.15	27.3	98.8

Conditions	drug sensitivity score
DERL-7 (IL-2 2.5 ng/mL) [16]	13.6
IMC-1 (IL-2 20 ng/mL) [17]	5.2
KAI3 (IL-2 2.5 ng/mL) [18]	10.3
KHYG-1 (IL-2 2.5 ng/mL) [19]	18.2
NK-92 (IL-2 2.5 ng/mL) [20]	10.8
NK-YS (IL-2 2.5 ng/mL) [21]	10.9
NKL (IL-2 2.5 ng/mL) [22]	10.7
SNK-6 (IL-2 2.5 ng/mL) [23]	8.04
YT (IL-2 2.5 ng/mL) [24]	8.93
[15]	12.8
[25]	10.6
[26]	13.5
[27]	12.2
[28]	9.53

From the supplement of paper PMC5908809
